Bounds are passed on as bounds.

The test system of one test is HeLa cells (ATCC CCL-2). The experiment in a line: Cellular growth inhibition assay, HeLa cells (Example 16). Type of test: cell-based. The note with it: Homo sapiens, 72 hours, CellTiter-Glo 2.0. A general note: In ATP-based viability assays light output follows the ATP content of the culture.
The target in test [1] is T1, EGFR T790M, L858R (amino acids 669-1011) (Homo sapiens, UniProt P00533, L858R/T790M).
T1 construct: purchased Eurofins Discovery (KdELECT); host or cells: mammalian cells (HEK-293)
The experiment in a line: KdELECT binding assay, EGFR T790M, L858R. Here is the method:
(§1) Exemplary compounds were tested for ability to bind to EGFR WT (amino acids 669-1011, Accession Number NP_005219.2) or EGFR T790M, L858R (amino acids 669-1011 Accession Number NP_005219.2) expressed from bacteria or mammalian cells, respectively. Compounds were tested using the KdELECT assay at Eurofins Discovery.
(§2) Kinase-tagged T7 phage strains were prepared in an E. coli host derived from the BL21 strain. E. coli were grown to log-phase and infected with T7 phage and incubated with shaking at 32° C. until lysis. The lysates were centrifuged and filtered to remove cell debris. The remaining kinases were produced in HEK-293 cells and subsequently tagged with DNA for qPCR detection. Streptavidin-coated magnetic beads were treated with biotinylated small molecule ligands for 30 minutes at room temperature to generate affinity resins for kinase assays. The liganded beads were blocked with excess biotin and washed with blocking buffer (SeaBlock (Pierce), 1% BSA, 0.05% Tween 20, 1 mM DTT) to remove unbound ligand and to reduce non-specific binding. Binding reactions were assembled by combining kinases, liganded affinity beads, and test compounds in 1x binding buffer (20% SeaBlock, 0.17× PBS, 0.05% Tween 20, 6 mM DTT). Test compounds were prepared as 111× stocks in 100% DMSO. Kd values were determined using an 11-point 3-fold compound dilution series with three DMSO control points. All compounds for Kd measurements are distributed by acoustic transfer (non-contact dispensing) in 100% DMSO. The compounds were then diluted directly into the assays such that the final concentration of DMSO was 0.9%. All reactions performed in polypropylene 384-well plate. Each was a final volume of 0.02 mL. The assay plates were incubated at room temperature with shaking for 1 hour and the affinity beads were washed with wash buffer (1× PBS, 0.05% Tween 20). The beads were then re-suspended in elution buffer (1× PBS, 0.05% Tween 20, 0.5 μM nonbiotinylated affinity ligand) and incubated at room temperature with shaking for 30 minutes. The kinase concentration in the eluates was measured by qPCR.

The subject of test [2] is HEK293 cells (ATCC CRL-1573). The experiment in a line: Cellular growth inhibition assay, HEK293 cells (Example 16). Type of test: cell-based. The conditions noted are these: Homo sapiens, 72 hours, CellTiter-Glo 2.0.
In test [3] the target is T2, EGFR WT (amino acids 669-1011) (Homo sapiens, UniProt P00533).
T2 construct: purchased Eurofins Discovery (KdELECT); host or cells: bacteria (E. coli BL21-derived, T7 phage)
The experiment in a line: KdELECT binding assay, EGFR WT. As for the experimental part: as §1, §2

A further test addresses T3, CCNK (Homo sapiens, UniProt O75909+Q16531+Q9NYV4).
T3 construct: expressed in transfected cells; host or cells: HEK293 LgBiT cells (Promega), lentiviral transduction, puromycin selection
The test can be described thus: CCNK HiBiT degradation assay. Type of test: cell-based. The conditions noted are these: HEK293 LgBiT/CCNK HiBiT cells, 6 hours. Here is the method: HEK293 LgBiT cells (Promega) were cultured in DMEM (Gibco 11995), supplemented with 10% Heat-inactivated FBS (Gibco A38400-01) and 1% Penicillin/Streptomycin (Gibco 15140-122) and 200 μg/ml Hygromycin B (Gibco 10-687-010) at 37° C. with 5% CO2 in a humidified tissue culture incubator. Cells were made stable for CCNK fused to a C-terminal HiBiT peptide by lentiviral transduction, followed by selection with 1 μg/ml Puromycin Dihydrochloride (Thermo A1113803). HEK293 LgBiT/CCNK HiBiT cells were seeded at 3000 cells/well in 384-well, tissue culture-treated white plates (Perkin Elmer 6007680) in 25 μL media lacking selection for 18-24 hours. Plates were spun at 300 g for 30 seconds and stored in the incubator overnight. After 24 hours, compounds were titrated in DMSO and added to media supplemented with Endurazine Substrate (Promega N2570). A 25 ul aliquot of 2× compound/endurazine in media were then added to the 384-well microplate with seeded cells. (Endurazine was used at a final concentration of 0.5×). The plate was spun at 300 g for 30 seconds and stored in the incubator. After 6 hours the plate was read on Envision MultiMode Plate Reader 2105 (Perkin Elmer) to measure luminescence signal. Data were plotted in Prism (Graphpad) and the concentration of compound at which 50% CCNK degradation occurs (DC50) was calculated.
On the technique in general: HiBiT is a short tag that completes a luciferase, so light tracks the accessible tagged protein.

Test [4] has as its target T4, EGFR T790M/L858R kinase domain (Homo sapiens, UniProt P00533, L858R/T790M).
T4 construct: EGFR (amino acids 696-1022, T790M, L858R); expressed in transfected cells; host or cells: HEK293, lentiviral transduction, puromycin selection
The experiment in a line: EGFR cellular target engagement assay (HEK293 cells stable for EGFR T790M, L858R). The note with it: 6 hours, read-out: TE50 (the source's name). The class given is cell-based. As for the experimental part:
HEK293 cells were cultured in DMEM (Gibco 11995), supplemented with 10% Heat-inactivated FBS (Gibco A38400-01) and 1% Penicillin/Streptomycin (Gibco 15140-122) at 37° C. with 5% CO2 in a humidified tissue culture incubator. Cells were made stable for EGFR (amino acids 696-1022, T790M, L858R) by lentiviral transduction, followed by selection with 1 μg/ml Puromycin Dihydrochloride (Thermo A1113803). Cells were seeded at 30,000 cells/ml in 0.1 ml of complete media in Poly-D-lysine-treated 96-well plates and incubated overnight. Cells were treated with increasing concentrations of compound and let incubate at 37C and 5% CO2 for 6 hours, after which media was aspirated, washed with 1×PBS and cells were lysed in RIPA Lysis and Extraction Buffer (Thermo 89901) supplemented with 5 mM MgCl2, Protease and Phosphatase inhibitor cocktail (Thermo 1861281), and Universal Nuclease (Thermo 88700). Plates with RIPA were shaken at 4° C. at 600 rpm for 15 min. After shaking samples, they were collected and spun down at 21,000 g for 15 min at 4° C. Following centrifugation, […] of lysate was added to Laemmli Sample Buffer (Bio-Rad 1610747) plus 10% beta-mercaptoethanol, boiled for 15 minutes at 65° C. and loaded onto 4-20% Mini-PROTEAN TGX™ Precast Protein Gels (Bio-Rad). Protein was transferred to a nitrocellulose membrane (Thermo LC2000) using the iBlot 2 Dry Blotting System (Thermo). After transfer, membranes were washed in 1× TBST (Bioland Scientific LLC TBST0103) 3× for 5 min. Following the wash, blocking buffer (Rockland MB-070) was added for 1 hour at room temperature. Primary antibodies against EGFR (Cell Signaling Technology 3197) and actin (Cell Signaling Technology 3700S) were added overnight at 4° C. Membranes were then washed again 3× for 5 min in 1× TBST. Secondary antibodies (LI-COR 926-68072 and 926-68073) were added and shaken for 1 hr at room temperature. Membranes were then washed 3× for 5 min in 1×TBST and developed. Membranes were placed on an Odyssey imager (LI-COR).

The target in the next test is T5, GSPT1 (Homo sapiens, UniProt P15170+Q96SW2).
T5 construct: host or cells: HEK293 LgBiT / GSPT1 HiBiT CRISPR knock-in
T5 sequence (P15170 whole entry): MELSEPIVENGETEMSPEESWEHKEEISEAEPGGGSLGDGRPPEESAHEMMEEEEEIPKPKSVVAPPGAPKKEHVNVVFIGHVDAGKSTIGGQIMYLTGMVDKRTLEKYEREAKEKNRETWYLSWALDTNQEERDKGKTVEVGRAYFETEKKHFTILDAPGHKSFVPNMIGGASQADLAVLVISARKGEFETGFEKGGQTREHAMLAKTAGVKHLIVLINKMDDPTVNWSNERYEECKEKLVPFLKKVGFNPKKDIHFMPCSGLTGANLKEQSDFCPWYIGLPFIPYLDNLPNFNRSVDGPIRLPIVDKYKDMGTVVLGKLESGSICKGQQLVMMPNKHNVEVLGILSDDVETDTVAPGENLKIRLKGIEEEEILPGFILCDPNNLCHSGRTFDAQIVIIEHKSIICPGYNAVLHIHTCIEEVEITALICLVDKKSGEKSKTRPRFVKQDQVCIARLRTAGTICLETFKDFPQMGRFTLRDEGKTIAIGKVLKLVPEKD
T5 sequence (Q96SW2 whole entry): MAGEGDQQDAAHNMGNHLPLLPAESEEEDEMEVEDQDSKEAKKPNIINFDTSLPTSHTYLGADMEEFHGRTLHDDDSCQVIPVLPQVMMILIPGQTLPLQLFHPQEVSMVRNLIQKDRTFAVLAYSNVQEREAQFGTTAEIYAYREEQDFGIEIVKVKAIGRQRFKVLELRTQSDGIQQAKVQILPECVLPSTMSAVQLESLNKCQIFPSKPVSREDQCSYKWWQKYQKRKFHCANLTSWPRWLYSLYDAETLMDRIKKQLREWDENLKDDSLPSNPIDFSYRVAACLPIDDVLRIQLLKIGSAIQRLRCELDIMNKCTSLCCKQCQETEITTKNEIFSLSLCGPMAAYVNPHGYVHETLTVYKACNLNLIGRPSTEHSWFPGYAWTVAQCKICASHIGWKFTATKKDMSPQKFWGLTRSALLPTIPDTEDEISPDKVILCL
T5 sequence (Q16531 whole entry partner): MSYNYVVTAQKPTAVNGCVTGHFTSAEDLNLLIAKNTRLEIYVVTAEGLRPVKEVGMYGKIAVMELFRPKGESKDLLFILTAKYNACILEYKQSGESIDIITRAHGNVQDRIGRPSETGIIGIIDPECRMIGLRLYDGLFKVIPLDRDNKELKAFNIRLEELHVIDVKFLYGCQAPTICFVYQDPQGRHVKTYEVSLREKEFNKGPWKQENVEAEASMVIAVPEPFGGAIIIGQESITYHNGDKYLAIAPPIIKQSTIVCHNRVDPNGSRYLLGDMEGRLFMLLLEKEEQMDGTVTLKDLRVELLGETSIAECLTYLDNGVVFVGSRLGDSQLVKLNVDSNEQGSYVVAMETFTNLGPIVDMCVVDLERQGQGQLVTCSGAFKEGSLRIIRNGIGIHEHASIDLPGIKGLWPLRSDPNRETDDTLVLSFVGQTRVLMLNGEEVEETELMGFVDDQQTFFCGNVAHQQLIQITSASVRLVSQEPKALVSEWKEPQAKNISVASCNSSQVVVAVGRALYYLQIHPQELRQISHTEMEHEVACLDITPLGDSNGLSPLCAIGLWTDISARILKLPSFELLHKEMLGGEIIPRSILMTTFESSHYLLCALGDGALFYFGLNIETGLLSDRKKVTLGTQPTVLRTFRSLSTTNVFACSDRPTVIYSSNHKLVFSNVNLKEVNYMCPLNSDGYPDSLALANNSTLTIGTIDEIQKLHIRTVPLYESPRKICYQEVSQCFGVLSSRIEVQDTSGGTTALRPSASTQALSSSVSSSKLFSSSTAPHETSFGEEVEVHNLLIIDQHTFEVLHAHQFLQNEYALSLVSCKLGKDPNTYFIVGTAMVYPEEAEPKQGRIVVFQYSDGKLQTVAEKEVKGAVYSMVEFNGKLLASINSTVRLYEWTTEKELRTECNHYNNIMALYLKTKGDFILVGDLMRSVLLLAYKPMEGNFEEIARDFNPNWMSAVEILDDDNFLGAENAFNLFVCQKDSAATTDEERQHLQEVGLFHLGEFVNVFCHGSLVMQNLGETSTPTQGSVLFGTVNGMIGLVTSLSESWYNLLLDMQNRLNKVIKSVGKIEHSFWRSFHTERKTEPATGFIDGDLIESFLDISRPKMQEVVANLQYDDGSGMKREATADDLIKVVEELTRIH
The experiment in a line: GSPT1 HiBiT degradation assay. Type of test: cell-based. The conditions noted are these: HEK293 LgBiT GSPT1 HiBiT cells, 6 hours. An excerpt:
Promega developed a HEK293 cell line that constitutively expresses LgBiT protein and GSPT1_HiBiT fusion protein. When both proteins are present, the HiBiT portion of the fusion protein combines with LgBiT protein to form a functional luciferase enzyme. Endurazine, a cell permeable small molecule, is converted by cellular esterases into furimazine, which the luciferase enzyme uses as a substrate to generate luminescence. When GSPT1 is degraded, the HiBit is also degraded. This prevents formation of fully functional luciferase, leading to a loss in luminescence. GSPT1 degradation therefore correlates with a decrease in luminescence and can be measured continuously over time. The concentration of compound at which 50% GSPT1 degradation occurs (DC50) may be calculated using this system.
HEK293 LgBiTGSPT1 HiBiT CRISPR Knock-in cells were cultured in DMEM Media supplemented with 10% Heat-inactivated FBS, 1% Penicillin/Streptomycin, 200 μg/mL hygromycin and stored in a humidified incubator set at 37° C. and 5% CO2. 18-24 hours prior to compound treatment, cells were seeded at 1000 cells/well in a 384-well tissue culture-treated white plates in 25 μL media lacking selection for 18-24 hours. The plates were spun at 300 g for 30 seconds and stored in the incubator overnight. After 24 hours, compounds are titrated in DMSO and added to media supplemented with endurazine substrate. A 25 μL aliquot of 2× compound/endurazine in media is then added to the 384-well microplate with seeded cells. (Endurazine is used at a final concentration of 0.5×). The plate was spun at 300 g for 30 seconds and stored in the incubator. After 6 hours, the plate was read on a Perkin Elmer MultiMode Plate Reader Envision 2105 to measure luminescence signal. Data were plotted in Prism (Graphpad) and the concentration of compound at which 50% GSPT1 degradation occurs (DC50) was calculated.

The target of a further test is T6, EGFR T790M L858R (Homo sapiens, UniProt P00533, L858R/T790M).
T6 construct: EGFR T790M L858R (amino acids 696-1022)
The test can be described thus: Release of effector protein ligand from heterobifunctional compounds, EGFR T790M L858R. Type of test: biochemical. The conditions noted are these: detected A1-3. Here is the method: Exemplary heterobifunctional compounds were evaluated for the ability to release an effector protein ligand in the presence of KRAS G12C, BTK, or EGFR T790M L858R target proteins.
Samples for mass spectrometry for KRAS G12C, BTK, and EGFR T790M L858R were prepared as described above for the intact mass spectrometry target engagement experiment, respectively, except rather than flash-freezing, 20 μL of sample was quenched with 50 μL of 100% acetonitrile. As well, a buffer-only control was used to detect latent release of effector protein ligand analyte. Internal standard (IS) solution consisted of 200 ng/mL propranolol and 50 ng/mL diclofenac in methanol:water 1:1 (v/v). A 4-point calibration curve (calibration standard (CS)) consisting of each analyte was made at final concentrations of 3 nM, 30 nM, 300 nM, and 3000 nM. Unknown samples were diluted such that the unknown analyte concentration was in the linear range of the calibration curve.
Samples for all proteins were prepared and analyzed from the following:
Samples were further analyzed with AB Sciex Triple Quad 5500 system coupled with Shimadzu Prominence HPLC.

T3 sequence (O75909 whole entry, species assumed): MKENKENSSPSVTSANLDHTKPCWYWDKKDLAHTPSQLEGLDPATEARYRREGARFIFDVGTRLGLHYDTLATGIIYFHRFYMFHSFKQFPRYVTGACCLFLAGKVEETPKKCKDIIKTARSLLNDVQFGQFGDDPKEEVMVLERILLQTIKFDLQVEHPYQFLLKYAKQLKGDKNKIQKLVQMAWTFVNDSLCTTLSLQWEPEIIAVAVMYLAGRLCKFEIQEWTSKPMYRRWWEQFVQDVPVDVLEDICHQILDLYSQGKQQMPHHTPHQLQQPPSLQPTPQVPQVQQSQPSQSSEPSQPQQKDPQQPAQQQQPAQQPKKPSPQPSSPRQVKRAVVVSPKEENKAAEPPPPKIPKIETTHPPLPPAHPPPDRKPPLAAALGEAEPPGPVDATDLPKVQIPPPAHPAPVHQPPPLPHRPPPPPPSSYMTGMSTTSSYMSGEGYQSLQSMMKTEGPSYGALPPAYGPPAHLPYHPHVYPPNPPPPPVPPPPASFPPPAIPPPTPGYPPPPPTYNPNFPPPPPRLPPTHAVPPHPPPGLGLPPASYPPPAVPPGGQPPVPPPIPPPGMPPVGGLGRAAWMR
T3 sequence (Q9NYV4 whole entry, species assumed): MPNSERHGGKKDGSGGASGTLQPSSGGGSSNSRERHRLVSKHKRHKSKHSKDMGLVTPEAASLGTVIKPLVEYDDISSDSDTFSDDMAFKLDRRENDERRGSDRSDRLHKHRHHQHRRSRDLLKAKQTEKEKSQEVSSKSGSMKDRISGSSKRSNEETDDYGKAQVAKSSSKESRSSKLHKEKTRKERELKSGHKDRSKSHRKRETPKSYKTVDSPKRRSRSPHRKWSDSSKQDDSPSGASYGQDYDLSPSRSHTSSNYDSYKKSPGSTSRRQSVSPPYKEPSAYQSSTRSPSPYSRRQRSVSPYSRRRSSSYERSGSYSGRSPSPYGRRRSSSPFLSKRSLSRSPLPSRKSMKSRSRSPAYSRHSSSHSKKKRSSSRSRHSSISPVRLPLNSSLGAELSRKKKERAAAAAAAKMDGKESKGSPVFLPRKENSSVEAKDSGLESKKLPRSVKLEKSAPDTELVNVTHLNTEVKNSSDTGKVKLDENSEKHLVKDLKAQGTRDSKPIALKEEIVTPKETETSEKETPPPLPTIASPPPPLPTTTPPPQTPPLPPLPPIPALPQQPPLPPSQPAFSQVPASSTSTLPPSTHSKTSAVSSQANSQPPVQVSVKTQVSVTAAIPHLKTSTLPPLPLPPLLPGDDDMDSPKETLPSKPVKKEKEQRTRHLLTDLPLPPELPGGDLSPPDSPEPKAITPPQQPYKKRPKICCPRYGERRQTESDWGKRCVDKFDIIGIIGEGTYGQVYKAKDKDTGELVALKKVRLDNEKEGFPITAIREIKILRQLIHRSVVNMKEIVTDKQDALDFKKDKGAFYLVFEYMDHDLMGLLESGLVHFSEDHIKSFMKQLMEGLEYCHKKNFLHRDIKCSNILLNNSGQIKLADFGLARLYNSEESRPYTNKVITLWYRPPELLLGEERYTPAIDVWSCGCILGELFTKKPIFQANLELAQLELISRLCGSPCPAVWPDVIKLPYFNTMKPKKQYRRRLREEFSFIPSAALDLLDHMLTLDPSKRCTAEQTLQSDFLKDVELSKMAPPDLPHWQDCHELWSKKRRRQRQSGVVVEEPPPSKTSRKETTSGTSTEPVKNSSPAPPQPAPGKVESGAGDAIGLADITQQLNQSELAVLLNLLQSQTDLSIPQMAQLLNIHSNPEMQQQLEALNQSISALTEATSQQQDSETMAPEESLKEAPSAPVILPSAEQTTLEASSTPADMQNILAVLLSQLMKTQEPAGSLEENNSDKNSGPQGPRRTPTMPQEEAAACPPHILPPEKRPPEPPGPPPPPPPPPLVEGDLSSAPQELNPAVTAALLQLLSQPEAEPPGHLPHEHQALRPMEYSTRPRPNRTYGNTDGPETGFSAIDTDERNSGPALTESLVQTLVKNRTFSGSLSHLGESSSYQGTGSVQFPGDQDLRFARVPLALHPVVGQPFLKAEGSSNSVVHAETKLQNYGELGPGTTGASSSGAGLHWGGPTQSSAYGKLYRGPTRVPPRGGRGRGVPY
T3 sequence (Q16531 whole entry, species assumed): as the sequence (Q16531 whole entry partner) above

On to `C=C(COC(=O)N1CCN(c2nc(NCc3nc4cc(C)ccc4[nH]3)n3ncc(Br)c3n2)CC1)C(=O)N[C@@H]1CN(c2nc(Nc3cn(C)nc3OC)c3ncn(C)c3n2)C[C@H]1F` [II-184], for which the 50% growth inhibitory concentration (GI50) (in the test with HeLa cells (ATCC CCL-2); in test [2]) was less than 0.5 µM in each case. The dissociation constant Kd in test [1] and in test [3] was 0.05 to 0.5 µM throughout. Also, at CCNK, the 50% degradation concentration (DC50) (as a rule, the concentration giving 50% degradation) was less than 0.25 µM. Moreover, the EC50 in test [4] is 0.25 to 5 µM.
With `C=C(CN(C(=O)NCc1ccc2c(c1)CN(C1CCC(=O)NC1=O)C2=O)c1ccc(C)c(Cl)c1)C(=O)N[C@@H]1CN(c2nc(Nc3cn(C)nc3OC)c3ncn(C)c3n2)C[C@H]1F` (some centres unmarked) [Compound I-41], the figures for the GI50 (with HeLa cells (ATCC CCL-2); in test [2]) were greater than 10 µM and 1.5 to 10 µM, respectively. Further, on GSPT1, the DC50 was greater than 2.5 µM. Besides, the Kd in test [1] and in test [3] was greater than 2.5 µM each time. Moreover, the EC50 in test [4] was greater than 10 µM.
With `C=C(Cn1cc(CNc2cc(N3CCCC[C@H]3CCO)nc3c(CC)cnn23)ccc1=O)C(=O)N[C@@H]1CN(c2nc(Nc3cn(C)nc3OC)c3ncn(C)c3n2)C[C@H]1F` [Compound A1-8], the “Concentration of Effector Protein Ligand” value turned out to be 0.889 µM at EGFR T790M L858R (Buffer + Protein (EGFR T790M L858R), Time 0 h); 5.18 µM at EGFR T790M L858R (Buffer + Protein (EGFR T790M L858R), Time 2 h); 6.91 µM at EGFR T790M L858R (Buffer + Protein (EGFR T790M L858R), Time 8 h); 9.11 µM on EGFR T790M L858R (Buffer + Protein (EGFR T790M L858R), Time 24 h); 0.894 µM on EGFR T790M L858R (Buffer, Time 0 h); 4.06 µM at EGFR T790M L858R (Buffer, Time 2 h). The “Concentration of Effector Protein Ligand” value at EGFR T790M L858R (Buffer, Time 8 h) came to 7.24 µM; at EGFR T790M L858R (Buffer, Time 24 h) it was 8.26 µM.
